# Test system: Erysiphe graminis tritici (powdery mildew)
# Test: Greenhouse Test 1, foliar spray fungicide screen (POWD MDEW), host wheat
# Type: in vivo
# Details: disease control rating, 400 ppm (+++ at 100 ppm)
row,Structure (SMILES),POWD MDEW
1,"C=CC(CCOc1ncnc2ccccc12)CCc1ccccc1 (stereo not shown) [Example 130, 4-[3-ethenyl-5-phenyl-pentyloxy]quinazoline]",+ (+ = 20-89% control at 400 ppm)
2,"COc1ccccc1CCOc1ncnc2c(F)cccc12 [Example 131, 8-fluoro-4-[2-(2-methoxyphenyl)ethoxy]quinazoline]",+++ (+++ = 90-100% control at 100 ppm)
3,"COc1ccc(CCOc2ncnc3c(F)cccc23)cc1 [Example 132, 8-fluoro-4-[2-(4-methoxyphenyl)ethoxy]quinazoline]",+++ (+++ = 90-100% control at 100 ppm)
4,"Fc1cccc2c(OCCc3cccc(C(F)(F)F)c3)ncnc12 [Example 133, 8-fluoro-4-[2-[3-(trifluoromethyl)phenyl]ethoxy]quinazoline]",+++ (+++ = 90-100% control at 100 ppm)
5,"CC(C)c1ccccc1CCOc1ncnc2ccccc12 [Example 135, 4-[2-[2-(1-methylethyl)phenyl]ethoxy]quinazoline]",+++ (+++ = 90-100% control at 100 ppm)

# Test system: Pyricularia oryzae (rice blast)
# Test: not given
# Type: in vivo
# Details: disease control rating, foliar spray, host rice; 400 ppm (+++ at 100 ppm)
row,Structure (SMILES),RICE BLAST
1,"C=CC(CCOc1ncnc2ccccc12)CCc1ccccc1 (stereo not shown) [Example 130, 4-[3-ethenyl-5-phenyl-pentyloxy]quinazoline]",- (- = 0-19% control at 400 ppm)
2,"COc1ccccc1CCOc1ncnc2c(F)cccc12 [Example 131, 8-fluoro-4-[2-(2-methoxyphenyl)ethoxy]quinazoline]",+++ (+++ = 90-100% control at 100 ppm)
3,"COc1ccc(CCOc2ncnc3c(F)cccc23)cc1 [Example 132, 8-fluoro-4-[2-(4-methoxyphenyl)ethoxy]quinazoline]",+++ (+++ = 90-100% control at 100 ppm)
4,"Fc1cccc2c(OCCc3cccc(C(F)(F)F)c3)ncnc12 [Example 133, 8-fluoro-4-[2-[3-(trifluoromethyl)phenyl]ethoxy]quinazoline]",+++ (+++ = 90-100% control at 100 ppm)
5,"CC(C)c1ccccc1CCOc1ncnc2ccccc12 [Example 135, 4-[2-[2-(1-methylethyl)phenyl]ethoxy]quinazoline]",+++ (+++ = 90-100% control at 100 ppm)

# Test system: Puccinia recondita tritici (leaf rust)
# Test: Greenhouse Test 1, foliar spray fungicide screen (LEAF RUST), host wheat
# Type: in vivo
# Details: disease control rating, 400 ppm (+++ at 100 ppm)
row,Structure (SMILES),LEAF RUST
1,"C=CC(CCOc1ncnc2ccccc12)CCc1ccccc1 (stereo not shown) [Example 130, 4-[3-ethenyl-5-phenyl-pentyloxy]quinazoline]",- (- = 0-19% control at 400 ppm)
2,"COc1ccccc1CCOc1ncnc2c(F)cccc12 [Example 131, 8-fluoro-4-[2-(2-methoxyphenyl)ethoxy]quinazoline]",+++ (+++ = 90-100% control at 100 ppm)
3,"COc1ccc(CCOc2ncnc3c(F)cccc23)cc1 [Example 132, 8-fluoro-4-[2-(4-methoxyphenyl)ethoxy]quinazoline]",+++ (+++ = 90-100% control at 100 ppm)
4,"Fc1cccc2c(OCCc3cccc(C(F)(F)F)c3)ncnc12 [Example 133, 8-fluoro-4-[2-[3-(trifluoromethyl)phenyl]ethoxy]quinazoline]",+++ (+++ = 90-100% control at 100 ppm)
5,"CC(C)c1ccccc1CCOc1ncnc2ccccc12 [Example 135, 4-[2-[2-(1-methylethyl)phenyl]ethoxy]quinazoline]",+++ (+++ = 90-100% control at 100 ppm)

# Test system: Botrytis cinerea (gray mold)
# Test: Greenhouse Test 1, foliar spray fungicide screen (GRAY MOLD), host grape berries
# Type: in vivo
# Details: disease control rating, 400 ppm (+++ at 100 ppm)
row,Structure (SMILES),GRAY MOLD
1,"C=CC(CCOc1ncnc2ccccc12)CCc1ccccc1 (stereo not shown) [Example 130, 4-[3-ethenyl-5-phenyl-pentyloxy]quinazoline]",- (- = 0-19% control at 400 ppm)
2,"COc1ccccc1CCOc1ncnc2c(F)cccc12 [Example 131, 8-fluoro-4-[2-(2-methoxyphenyl)ethoxy]quinazoline]",- (- = 0-19% control at 400 ppm)
3,"COc1ccc(CCOc2ncnc3c(F)cccc23)cc1 [Example 132, 8-fluoro-4-[2-(4-methoxyphenyl)ethoxy]quinazoline]",- (- = 0-19% control at 400 ppm)
4,"Fc1cccc2c(OCCc3cccc(C(F)(F)F)c3)ncnc12 [Example 133, 8-fluoro-4-[2-[3-(trifluoromethyl)phenyl]ethoxy]quinazoline]",- (- = 0-19% control at 400 ppm)
5,"CC(C)c1ccccc1CCOc1ncnc2ccccc12 [Example 135, 4-[2-[2-(1-methylethyl)phenyl]ethoxy]quinazoline]",- (- = 0-19% control at 400 ppm)

# Test system: Pseudoperonospora cubensis (downy mildew)
# Test: Greenhouse Test 1, foliar spray fungicide screen (DOWN MDEW), host squash
# Type: in vivo
# Details: disease control rating, 400 ppm (+++ at 100 ppm)
row,Structure (SMILES),DOWN MDEW
1,"C=CC(CCOc1ncnc2ccccc12)CCc1ccccc1 (stereo not shown) [Example 130, 4-[3-ethenyl-5-phenyl-pentyloxy]quinazoline]",- (- = 0-19% control at 400 ppm)
2,"COc1ccccc1CCOc1ncnc2c(F)cccc12 [Example 131, 8-fluoro-4-[2-(2-methoxyphenyl)ethoxy]quinazoline]",+++ (+++ = 90-100% control at 100 ppm)
3,"COc1ccc(CCOc2ncnc3c(F)cccc23)cc1 [Example 132, 8-fluoro-4-[2-(4-methoxyphenyl)ethoxy]quinazoline]",+++ (+++ = 90-100% control at 100 ppm)
4,"Fc1cccc2c(OCCc3cccc(C(F)(F)F)c3)ncnc12 [Example 133, 8-fluoro-4-[2-[3-(trifluoromethyl)phenyl]ethoxy]quinazoline]",+ (+ = 20-89% control at 400 ppm)
5,"CC(C)c1ccccc1CCOc1ncnc2ccccc12 [Example 135, 4-[2-[2-(1-methylethyl)phenyl]ethoxy]quinazoline]",+++ (+++ = 90-100% control at 100 ppm)

# Test system: Southern corn rootworm (Diabrotica undecimpuctata howardi Barber)
# Test: Mite/insect screen, soil treatment (CRW)
# Type: in vivo
# Details: Diabrotica; percent mortality; soil treatment, CRW rate 12.00 ppm; read-out: CRW RESULTS %
# How it was run: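 Five 2–3 instar larvae were placed on dry sandy soil with a presoaked corn seed after the soil had received 1 mL of compound solution and dried 6–12 h; cups were kept capped at 23°C. Mortality (%) and phytotoxicity were read after standard exposure. Formulation: acetone/alcohol with emulsifiers, water-diluted.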
row,Structure (SMILES),mortality at 12 ppm [%]
1,"C=CC(CCOc1ncnc2ccccc12)CCc1ccccc1 (stereo not shown) [Example 130, 4-[3-ethenyl-5-phenyl-pentyloxy]quinazoline]",0
2,"COc1ccc(CCOc2ncnc3c(F)cccc23)cc1 [Example 132, 8-fluoro-4-[2-(4-methoxyphenyl)ethoxy]quinazoline]",0
3,"Fc1cccc2c(OCCc3cccc(C(F)(F)F)c3)ncnc12 [Example 133, 8-fluoro-4-[2-[3-(trifluoromethyl)phenyl]ethoxy]quinazoline]",0
4,"CC(C)c1ccccc1CCOc1ncnc2ccccc12 [Example 135, 4-[2-[2-(1-methylethyl)phenyl]ethoxy]quinazoline]",0

# Same assay, conditions: Diabrotica; percent mortality; soil treatment, CRW rate 24.00 ppm; read-out: CRW RESULTS %
row,Structure (SMILES),mortality at 24 ppm [%]
1,"C=CC(CCOc1ncnc2ccccc12)CCc1ccccc1 (stereo not shown) [Example 130, 4-[3-ethenyl-5-phenyl-pentyloxy]quinazoline]",0
2,"COc1ccccc1CCOc1ncnc2c(F)cccc12 [Example 131, 8-fluoro-4-[2-(2-methoxyphenyl)ethoxy]quinazoline]",0
3,"COc1ccc(CCOc2ncnc3c(F)cccc23)cc1 [Example 132, 8-fluoro-4-[2-(4-methoxyphenyl)ethoxy]quinazoline]",0
4,"Fc1cccc2c(OCCc3cccc(C(F)(F)F)c3)ncnc12 [Example 133, 8-fluoro-4-[2-[3-(trifluoromethyl)phenyl]ethoxy]quinazoline]",100
5,"CC(C)c1ccccc1CCOc1ncnc2ccccc12 [Example 135, 4-[2-[2-(1-methylethyl)phenyl]ethoxy]quinazoline]",0

# Same assay, conditions: percent mortality; soil treatment, CRW rate 12.00 ppm
row,Structure (SMILES),CRW RESULTS % [%]
1,"Fc1cccc2c(OCCc3cccc(C(F)(F)F)c3)ncnc12 [Example 133, 8-fluoro-4-[2-[3-(trifluoromethyl)phenyl]ethoxy]quinazoline]",0

# Test system: southern armyworm (Spodopetra eridania Cramer)
# Test: Mite/insect screen, sprayed squash leaves (SAW)
# Type: in vivo
# Details: Spodoptera eridania, percent mortality; spray rate 200 ppm; read-out: SAW RESULTS %
# How it was run: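 Steps: formulate compound in acetone/alcohol 50:50 carrying emulsifiers; dilute with water; spray leaves until runoff on upper and lower surfaces; air-dry one hour; for armyworm, excise two […] leaves into a dish of larvae; after exposure, score mortality and plant injury.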
row,Structure (SMILES),mortality at 200 ppm [%]
1,"C=CC(CCOc1ncnc2ccccc12)CCc1ccccc1 (stereo not shown) [Example 130, 4-[3-ethenyl-5-phenyl-pentyloxy]quinazoline]",0
2,"COc1ccc(CCOc2ncnc3c(F)cccc23)cc1 [Example 132, 8-fluoro-4-[2-(4-methoxyphenyl)ethoxy]quinazoline]",0
3,"Fc1cccc2c(OCCc3cccc(C(F)(F)F)c3)ncnc12 [Example 133, 8-fluoro-4-[2-[3-(trifluoromethyl)phenyl]ethoxy]quinazoline]",0
4,"CC(C)c1ccccc1CCOc1ncnc2ccccc12 [Example 135, 4-[2-[2-(1-methylethyl)phenyl]ethoxy]quinazoline]",0

# Same assay, conditions: Spodoptera eridania, percent mortality; spray rate 400 ppm; read-out: SAW RESULTS %
row,Structure (SMILES),mortality at 400 ppm [%]
1,"C=CC(CCOc1ncnc2ccccc12)CCc1ccccc1 (stereo not shown) [Example 130, 4-[3-ethenyl-5-phenyl-pentyloxy]quinazoline]",0
2,"COc1ccccc1CCOc1ncnc2c(F)cccc12 [Example 131, 8-fluoro-4-[2-(2-methoxyphenyl)ethoxy]quinazoline]",0
3,"COc1ccc(CCOc2ncnc3c(F)cccc23)cc1 [Example 132, 8-fluoro-4-[2-(4-methoxyphenyl)ethoxy]quinazoline]",0
4,"Fc1cccc2c(OCCc3cccc(C(F)(F)F)c3)ncnc12 [Example 133, 8-fluoro-4-[2-[3-(trifluoromethyl)phenyl]ethoxy]quinazoline]",0
5,"CC(C)c1ccccc1CCOc1ncnc2ccccc12 [Example 135, 4-[2-[2-(1-methylethyl)phenyl]ethoxy]quinazoline]",0

# Same assay, conditions: percent mortality; spray rate 200 ppm
row,Structure (SMILES),SAW RESULTS % [%]
1,"Fc1cccc2c(OCCc3cccc(C(F)(F)F)c3)ncnc12 [Example 133, 8-fluoro-4-[2-[3-(trifluoromethyl)phenyl]ethoxy]quinazoline]",0

# Test system: Twospotted spider mites (Tetranychus urticae Koch)
# Test: Mite/insect screen, sprayed squash cotyledons (SM)
# Type: in vivo
# Details: Tetranychus urticae, percent mortality; spray rate 200 ppm; read-out: SM RESULTS %
# How it was run: (§1)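 Compounds dissolved in acetone/alcohol with TOXIMUL R/S emulsifiers, diluted with water to test concentrations, and sprayed to runoff on both leaf surfaces at 10 psi, then dried 1 h. Excised treated squash leaves given southern armyworm larvae; aphid and spider mite tests on sprayed squash cotyledons. Percent mortality and phytotoxicity scored after standard exposure.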
row,Structure (SMILES),mortality at 200 ppm [%]
1,"C=CC(CCOc1ncnc2ccccc12)CCc1ccccc1 (stereo not shown) [Example 130, 4-[3-ethenyl-5-phenyl-pentyloxy]quinazoline]",80
2,"COc1ccc(CCOc2ncnc3c(F)cccc23)cc1 [Example 132, 8-fluoro-4-[2-(4-methoxyphenyl)ethoxy]quinazoline]",20
3,"CC(C)c1ccccc1CCOc1ncnc2ccccc12 [Example 135, 4-[2-[2-(1-methylethyl)phenyl]ethoxy]quinazoline]",0

# Same assay, conditions: Tetranychus urticae, percent mortality; spray rate 400 ppm; read-out: SM RESULTS %
row,Structure (SMILES),mortality at 400 ppm [%]
1,"C=CC(CCOc1ncnc2ccccc12)CCc1ccccc1 (stereo not shown) [Example 130, 4-[3-ethenyl-5-phenyl-pentyloxy]quinazoline]",70
2,"COc1ccccc1CCOc1ncnc2c(F)cccc12 [Example 131, 8-fluoro-4-[2-(2-methoxyphenyl)ethoxy]quinazoline]",0
3,"COc1ccc(CCOc2ncnc3c(F)cccc23)cc1 [Example 132, 8-fluoro-4-[2-(4-methoxyphenyl)ethoxy]quinazoline]",0
4,"Fc1cccc2c(OCCc3cccc(C(F)(F)F)c3)ncnc12 [Example 133, 8-fluoro-4-[2-[3-(trifluoromethyl)phenyl]ethoxy]quinazoline]",100
5,"CC(C)c1ccccc1CCOc1ncnc2ccccc12 [Example 135, 4-[2-[2-(1-methylethyl)phenyl]ethoxy]quinazoline]",0

# Test system: melon aphids (Aphis gossypii Glover)
# Test: Mite/insect screen, sprayed squash cotyledons (MA)
# Type: in vivo
# Details: Aphis gossypii, percent mortality; spray rate 200 ppm; read-out: MA RESULTS %
# How it was run: as §1
row,Structure (SMILES),mortality at 200 ppm [%]
1,"C=CC(CCOc1ncnc2ccccc12)CCc1ccccc1 (stereo not shown) [Example 130, 4-[3-ethenyl-5-phenyl-pentyloxy]quinazoline]",80
2,"COc1ccc(CCOc2ncnc3c(F)cccc23)cc1 [Example 132, 8-fluoro-4-[2-(4-methoxyphenyl)ethoxy]quinazoline]",80
3,"CC(C)c1ccccc1CCOc1ncnc2ccccc12 [Example 135, 4-[2-[2-(1-methylethyl)phenyl]ethoxy]quinazoline]",0

# Same assay, conditions: Aphis gossypii, percent mortality; spray rate 400 ppm; read-out: MA RESULTS %
row,Structure (SMILES),mortality at 400 ppm [%]
1,"C=CC(CCOc1ncnc2ccccc12)CCc1ccccc1 (stereo not shown) [Example 130, 4-[3-ethenyl-5-phenyl-pentyloxy]quinazoline]",100
2,"COc1ccccc1CCOc1ncnc2c(F)cccc12 [Example 131, 8-fluoro-4-[2-(2-methoxyphenyl)ethoxy]quinazoline]",0
3,"COc1ccc(CCOc2ncnc3c(F)cccc23)cc1 [Example 132, 8-fluoro-4-[2-(4-methoxyphenyl)ethoxy]quinazoline]",0
4,"Fc1cccc2c(OCCc3cccc(C(F)(F)F)c3)ncnc12 [Example 133, 8-fluoro-4-[2-[3-(trifluoromethyl)phenyl]ethoxy]quinazoline]",100
5,"CC(C)c1ccccc1CCOc1ncnc2ccccc12 [Example 135, 4-[2-[2-(1-methylethyl)phenyl]ethoxy]quinazoline]",0
